We go through 1 compound from doi:10.1101/2024.01.24.577111v1 (biorxiv, 2024).

One test concerns the target rat TRPM8 (Rattus norvegicus, UniProt Q8R455). As to the kind of experiment: Fura-2 ratiometric calcium imaging, agonist dose-response. The format is cell-based.
A further test addresses mouse TRPM8 (mTRPM8) (Mus musculus, UniProt Q8R4D5). As to the kind of experiment: whole-cell patch clamp, shift of voltage for half-maximal activation. Type of test: cell-based. To be noted: agonist; 30 µM rapamycin, calcium-free, pH 7.4, 33 °C. For orientation: The patch-clamp technique gives a direct electrical read-out from membranes.

Chain of mouse TRPM8 (mTRPM8) (Q8R4D5 whole entry): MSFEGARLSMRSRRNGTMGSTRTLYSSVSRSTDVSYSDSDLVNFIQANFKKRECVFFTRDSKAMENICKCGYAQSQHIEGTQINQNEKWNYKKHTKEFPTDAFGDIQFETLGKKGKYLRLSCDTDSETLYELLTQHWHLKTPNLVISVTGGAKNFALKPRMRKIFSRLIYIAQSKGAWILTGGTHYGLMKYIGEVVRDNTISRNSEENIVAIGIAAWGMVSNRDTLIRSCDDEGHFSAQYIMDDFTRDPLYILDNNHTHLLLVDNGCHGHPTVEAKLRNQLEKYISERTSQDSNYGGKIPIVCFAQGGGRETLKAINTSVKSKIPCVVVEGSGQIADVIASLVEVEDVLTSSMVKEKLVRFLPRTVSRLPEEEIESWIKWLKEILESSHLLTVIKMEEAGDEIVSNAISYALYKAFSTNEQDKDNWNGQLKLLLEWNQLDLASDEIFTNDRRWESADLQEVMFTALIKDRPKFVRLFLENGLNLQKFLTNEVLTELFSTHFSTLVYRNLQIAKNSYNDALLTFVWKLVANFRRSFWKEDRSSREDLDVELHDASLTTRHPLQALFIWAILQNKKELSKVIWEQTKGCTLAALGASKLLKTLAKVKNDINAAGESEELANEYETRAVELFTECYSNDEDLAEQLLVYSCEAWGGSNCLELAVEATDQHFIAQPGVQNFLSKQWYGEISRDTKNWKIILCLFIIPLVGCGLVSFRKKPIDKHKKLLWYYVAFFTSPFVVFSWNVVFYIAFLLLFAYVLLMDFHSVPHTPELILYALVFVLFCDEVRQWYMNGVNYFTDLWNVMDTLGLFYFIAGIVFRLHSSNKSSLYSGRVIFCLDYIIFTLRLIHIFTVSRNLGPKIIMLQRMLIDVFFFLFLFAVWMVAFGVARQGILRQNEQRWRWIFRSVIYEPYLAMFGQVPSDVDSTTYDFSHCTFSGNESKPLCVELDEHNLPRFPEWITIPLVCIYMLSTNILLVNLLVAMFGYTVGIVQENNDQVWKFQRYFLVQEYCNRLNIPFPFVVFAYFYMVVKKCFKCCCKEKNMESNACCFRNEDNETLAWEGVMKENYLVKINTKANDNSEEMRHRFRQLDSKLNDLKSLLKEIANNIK
Chain of rat TRPM8 (Q8R455 whole entry): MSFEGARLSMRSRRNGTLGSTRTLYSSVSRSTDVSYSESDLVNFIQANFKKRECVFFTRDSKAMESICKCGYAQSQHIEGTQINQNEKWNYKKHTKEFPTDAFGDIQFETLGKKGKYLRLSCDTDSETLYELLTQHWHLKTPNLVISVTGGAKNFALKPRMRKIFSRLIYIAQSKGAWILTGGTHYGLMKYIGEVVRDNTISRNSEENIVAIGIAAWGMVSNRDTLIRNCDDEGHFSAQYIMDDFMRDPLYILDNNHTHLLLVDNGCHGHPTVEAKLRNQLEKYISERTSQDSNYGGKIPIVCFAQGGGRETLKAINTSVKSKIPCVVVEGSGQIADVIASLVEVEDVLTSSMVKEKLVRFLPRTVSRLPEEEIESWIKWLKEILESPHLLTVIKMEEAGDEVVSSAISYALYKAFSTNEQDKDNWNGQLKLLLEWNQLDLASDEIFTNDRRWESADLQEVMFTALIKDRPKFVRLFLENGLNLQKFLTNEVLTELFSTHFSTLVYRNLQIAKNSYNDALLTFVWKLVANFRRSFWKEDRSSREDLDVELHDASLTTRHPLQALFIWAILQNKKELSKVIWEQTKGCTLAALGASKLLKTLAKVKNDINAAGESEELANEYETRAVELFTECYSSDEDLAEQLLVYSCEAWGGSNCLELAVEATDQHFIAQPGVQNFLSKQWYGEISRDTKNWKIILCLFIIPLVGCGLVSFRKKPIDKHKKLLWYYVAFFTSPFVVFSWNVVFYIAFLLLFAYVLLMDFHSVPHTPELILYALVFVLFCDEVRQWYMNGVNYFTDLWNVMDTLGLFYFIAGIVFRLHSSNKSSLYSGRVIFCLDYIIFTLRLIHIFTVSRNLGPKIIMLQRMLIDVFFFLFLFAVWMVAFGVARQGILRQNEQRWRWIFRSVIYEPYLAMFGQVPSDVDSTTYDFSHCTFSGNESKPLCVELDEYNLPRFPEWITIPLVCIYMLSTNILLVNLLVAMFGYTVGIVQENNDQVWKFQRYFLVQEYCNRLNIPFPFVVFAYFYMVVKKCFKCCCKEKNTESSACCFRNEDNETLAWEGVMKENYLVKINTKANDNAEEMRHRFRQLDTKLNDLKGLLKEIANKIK

As usually defined, the EC50 is the concentration at which the effect is half-maximal. With `CO[C@H]1C[C@@H]2CC[C@@H](C)[C@@](O)(O2)C(=O)C(=O)N2CCCC[C@H]2C(=O)O[C@H]([C@H](C)C[C@@H]2CC[C@@H](O)[C@H](OC)C2)CC(=O)[C@H](C)/C=C(\C)[C@@H](O)[C@@H](OC)C(=O)[C@H](C)C[C@H](C)/C=C/C=C/C=C/1C` [rapamycin], the concentration for a half-maximal effect (EC50) on rat TRPM8 was found to be 6.5 ± 1.5 µM. Besides, at mouse TRPM8 (mTRPM8), the ΔV1/2 is reported as −102.1 ± 5.2 mV.
